Data published in US8003649B2 (AstraZeneca AB, priority 2007, dated 2011).

biological target: T1, Androgen Receptor (AR) (Homo sapiens, UniProt P10275, T878A); experiment: LNCaP Androgen Receptor Down-regulation Cell Assay (immunofluorescence end point); type: cell-based; settings: LNCaP prostate carcinoma cells, compound incubation 20-22 hours, 50% reduction of the AR signal; read-out: Androgen Receptor Down-regulation Assay (a) IC50/μM
T1 construct: cell based immuno-fluorescence assay using the LNCaP prostate epithelial cell line; endogenous in cells; host or cells: LNCaP clone FGC (ATCC CRL-1740)
T1 sequence (P10275 1-920 T878A): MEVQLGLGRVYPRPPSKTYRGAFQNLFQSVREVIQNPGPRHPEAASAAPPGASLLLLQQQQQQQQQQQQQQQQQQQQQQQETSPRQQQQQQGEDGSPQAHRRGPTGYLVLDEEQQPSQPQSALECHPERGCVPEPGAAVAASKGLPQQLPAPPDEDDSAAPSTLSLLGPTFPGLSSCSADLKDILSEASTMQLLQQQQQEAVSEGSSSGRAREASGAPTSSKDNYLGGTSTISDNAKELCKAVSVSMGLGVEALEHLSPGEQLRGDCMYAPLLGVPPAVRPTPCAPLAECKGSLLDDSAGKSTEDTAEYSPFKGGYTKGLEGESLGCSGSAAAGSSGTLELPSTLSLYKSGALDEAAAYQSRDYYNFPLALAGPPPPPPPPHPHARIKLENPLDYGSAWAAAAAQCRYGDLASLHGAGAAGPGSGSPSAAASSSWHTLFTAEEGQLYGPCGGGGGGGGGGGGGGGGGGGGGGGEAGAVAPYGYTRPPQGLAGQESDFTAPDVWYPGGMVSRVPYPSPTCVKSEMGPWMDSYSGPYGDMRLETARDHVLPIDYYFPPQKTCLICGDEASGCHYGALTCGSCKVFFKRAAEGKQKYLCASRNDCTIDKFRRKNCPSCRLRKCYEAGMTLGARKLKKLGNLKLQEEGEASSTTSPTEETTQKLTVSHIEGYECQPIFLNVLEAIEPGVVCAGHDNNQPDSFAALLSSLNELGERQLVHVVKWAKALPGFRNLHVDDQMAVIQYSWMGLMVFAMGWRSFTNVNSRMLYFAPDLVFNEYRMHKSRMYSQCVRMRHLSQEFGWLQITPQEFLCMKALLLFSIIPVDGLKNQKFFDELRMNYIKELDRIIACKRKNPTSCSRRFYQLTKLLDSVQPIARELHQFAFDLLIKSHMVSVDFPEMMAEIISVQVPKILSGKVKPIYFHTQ
Procedure, shortened: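 LNCaP cells in medium with 5% charcoal-stripped FBS were plated overnight, then treated with a compound dilution series for 20-22 h at 37° C. After fixation, permeabilisation and immunostaining, AR-associated green fluorescence was quantified by laser-scanning microplate cytometry; AR down-regulation expressed as IC50 from fitted dose-response curves.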

| DC50 | SMILES |
| --- | --- |
| 6.6 µM | FC(F)(F)c1nnc2ccc(N3CCN(Cc4ccc(N5CCOCC5)cc4)CC3)nn12 [Example 160, 6-[4-[(4-morpholin-4-ylphenyl)methyl]piperazin-1-yl]-3-(trifluoromethyl)-[1,2,4]triazolo[4,3-b]pyridazine] |
| 1.4 µM | FC(F)Oc1ccc(CN2CCN(c3ccc4nnc(C(F)(F)F)n4n3)CC2)cc1 [Example 161, 6-[4-[[4-(difluoromethoxy)phenyl]methyl]piperazin-1-yl]-3-(trifluoromethyl)-[1,2,4]triazolo[4,3-b]pyridazine] |
| 1 µM | FC(F)Oc1cccc(CN2CCN(c3ccc4nnc(C(F)(F)F)n4n3)CC2)c1 [Example 162, 6-[4-[[3-(difluoromethoxy)phenyl]methyl]piperazin-1-yl]-3-(trifluoromethyl)-[1,2,4]triazolo[4,3-b]pyridazine] |
| 3.6 µM | CCOC(=O)/C=C/c1ccc(CN2CCN(c3ccc4nnc(C(F)(F)F)n4n3)CC2)cc1 [Example 163, ethyl (E)-3-[4-[[4-[3-(trifluoromethyl)-[1,2,4]triazolo[4,3-b]pyridazin-6-yl]piperazin-1-yl]methyl]phenyl]prop-2-enoate] |
| 1.7 µM | CS(=O)(=O)c1ccccc1CN1CCCN(c2ccc3nnc(C(F)(F)F)n3n2)CC1 [Example 164, 6-[4-[(2-methylsulfonylphenyl)methyl]-1,4-diazepan-1-yl]-3-(trifluoromethyl)-[1,2,4]triazolo[4,3-b]pyridazine] |
| 1.7 µM | CS(=O)(=O)c1cccc(CN2CCCN(c3ccc4nnc(C(F)(F)F)n4n3)CC2)c1 [Example 165, 6-[4-[(3-methylsulfonylphenyl)methyl]-1,4-diazepan-1-yl]-3-(trifluoromethyl)-[1,2,4]triazolo[4,3-b]pyridazine] |
| 2.4 µM | COc1ccccc1CN1CCCN(c2ccc3nnc(C(F)(F)F)n3n2)CC1 [Example 167, 6-[4-[(2-methoxyphenyl)methyl]-1,4-diazepan-1-yl]-3-(trifluoromethyl)-[1,2,4]triazolo[4,3-b]pyridazine] |
| 1.6 µM | FC(F)(F)c1ccc(CN2CCCN(c3ccc4nnc(C(F)(F)F)n4n3)CC2)cc1 [Example 168, 3-(trifluoromethyl)-6-[4-[[4-(trifluoromethyl)phenyl]methyl]-1,4-diazepan-1-yl]-[1,2,4]triazolo[4,3-b]pyridazine] |
| 0.92 µM | Fc1ccccc1CN1CCCN(c2ccc3nnc(C(F)(F)F)n3n2)CC1 [Example 169, 6-[4-[(2-fluorophenyl)methyl]-1,4-diazepan-1-yl]-3-(trifluoromethyl)-[1,2,4]triazolo[4,3-b]pyridazine] |
| 0.61 µM | N#Cc1ccc(CN2CCCN(c3ccc4nnc(C(F)(F)F)n4n3)CC2)cc1 [Example 170, 4-[[4-[3-(trifluoromethyl)-[1,2,4]triazolo[4,3-b]pyridazin-6-yl]-1,4-diazepan-1-yl]methyl]benzonitrile] |
| 0.62 µM | N#Cc1cccc(CN2CCCN(c3ccc4nnc(C(F)(F)F)n4n3)CC2)c1 [Example 171, 3-[[4-[3-(trifluoromethyl)-[1,2,4]triazolo[4,3-b]pyridazin-6-yl]-1,4-diazepan-1-yl]methyl]benzonitrile] |
| 0.81 µM | Fc1cccc(CN2CCCN(c3ccc4nnc(C(F)(F)F)n4n3)CC2)c1 [Example 172, 6-[4-[(3-fluorophenyl)methyl]-1,4-diazepan-1-yl]-3-(trifluoromethyl)-[1,2,4]triazolo[4,3-b]pyridazine] |
| 0.68 µM | FC(F)(F)c1nnc2ccc(N3CCCN(Cc4cccc(Cl)c4)CC3)nn12 [Example 175, 6-[4-[(3-chlorophenyl)methyl]-1,4-diazepan-1-yl]-3-(trifluoromethyl)-[1,2,4]triazolo[4,3-b]pyridazine] |
| 0.85 µM | FC(F)(F)c1nnc2ccc(N3CCCN(Cc4ccc(Cl)cc4)CC3)nn12 [Example 176, 6-[4-[(4-chlorophenyl)methyl]-1,4-diazepan-1-yl]-3-(trifluoromethyl)-[1,2,4]triazolo[4,3-b]pyridazine] |
